Test results reported in patent US12138256B2, “Treatment of cardiopulmonary disorders” (Bayer Aktiengesellschaft, priority 2021, dated 2024).
Where “and” joins values, the source holds several entries; their conditions need not be identical. Equal values may be shown once. Read-outs that look alike come from different tables or passages of the source.

Legend:
[1] = system: hypoxia induced PAP increase in conscious dogs; assay: Haemodynamics in conscious hypoxia challenged dogs (C-2.2); type: in vivo, dog; design: PAP, absolute values for each animal: unit: mmHg; conditions: for mPAP decrease during Hypoxia, each animal / mPAP decrease during Hypoxia, mean +/− SEM: n = 3
Experimental: Experiments were carried out in anesthetized Göttingen minipigs, anesthetized rats and conscious, telemetrically instrumented dogs. Acute pulmonary hypertension was induced for example by infusion of a thromboxane A2 analogon, by acute hypoxia treatment or hypoxia treatment over a number of weeks and/or by administration of monocrotaline. Test substances were applied via nebulization using the Nebutec® or Aeroneb® Pro nebulizer system, and/or by means of powder and/or solution applicators for experimental intratracheal administration (Liquid MicroSprayer®, Dry Powder Insufflator™, MicroSprayer®, Penn-Century Inc., Wyndmoor, PA, USA) or after solid nebulization inserted into the inspiration arm of the ventilation. Compounds were employed as solids or solutions depending on the molecular structure and the technical possibility depending on the experiment. The haemodynamic signals were recorded and evaluated by means of pressure transducers/amplifiers (Combitransducer B. Braun, Melsungen, Germany or CardioMEMS Inc., Atlanta, GA, USA) and Ponemah® or CardioMems® as data aquisition software. After long-term experiments (for example monocrotaline rat), it is also possible to carry out a histological evaluation.
We evaluated the lung-selectivity and duration of effects of comparative example 11 under conscious conditions, in another species, and under a more physiological stimulus for PAP increase. Dogs were exposed to hypoxia for 30 minutes to induce a hypoxia-mediated PAP increase and comparative example 11 (100 μg/kg nominal dose) was applied by inhalation 1, 5, 12, 16 and 24 hours before hypoxia.
The hypoxic dog model was also used to compare different drug candidates wrt duration of action under conscious conditions.

[2] = system: rabbit saphenous artery; assay: Vasorelaxant effect in vitro: phenylephrine-induced contraction of rabbit saphenous artery rings (C-1.1); conditions: Oryctolagus cuniculus, read-out: IC50, inhibition of phenylephrine induced contractions of rabbit saphenous artery rings
Experimental: Rabbits were anaesthetized and sacrificed by intravenous injection of thiopental sodium (about 50 mg/kg) and exsanguinated. The saphenous artery was removed and divided into rings 3 mm wide. The rings were mounted singly on in each case a pair of triangular hooks open at the end and made of 0.3 mm-thick special wire (Remanium®). Each ring was placed under an initial tension in 5 ml organ baths with Krebs-Henseleit solution which was at 37° C., was gassed with carbogen and had the following composition: NaCl 119 mM; KCl 4.8 mM; CaCl2)×2 H2O 1 mM; MgSO4×7 H2O 1.4 mM; KH2PO41.2 mM; NaHCO325 mM; glucose 10 mM; bovine serum albumin 0.001%. The force of contraction was detected with Statham UC2 cells, amplified and digitized via A/D converters (DAS-1802 HC, Keithley Instruments, Munich) and recorded in parallel on chart recorders. Contractions were induced by addition of phenylephrine.
The concentration necessary to reduce the contraction reached in the preceding control by 50% was calculated from this (IC50). The standard application volume was 5 μl. The proportion of DMSO in the bath solution corresponded to 0.1%.

[3] = Protein binding via Transil assay, dog plasma; type: in vitro ADME; conditions: Dog Beagle plasma, Transil assay
Source text: The distribution of a test substance between Transil® (phosphatidylcholine lipid bilayers immobilized on silica beads) and plasma is a characteristic feature of any pharmaceutical compound and is dependent on its extent of binding to plasma proteins. By comparing the distribution between Transil® and buffer with the distribution between Transil® and plasma of any species of interest, the unbound fraction in the plasma of the respective animal species can be calculated in vitro. The respective plasma and buffer concentrations were determined via a radioactivity analysis. A detailed description of the method and its validation was published by Schuhmacher et al. (2).

[4] = Storage stability of pseudopolymorphic forms (XRPD after storage); type: physicochemical; conditions: 25° C./60% and 40° C./75% relative humidity
[5] = 100 μg/kg nominal dose inhaled, 1-2 h post inhalation
[6] = 100 μg/kg nominal dose inhaled, 5-6 h post inhalation
[7] = 100 μg/kg nominal dose inhaled, 12-13 h post inhalation
[8] = 100 μg/kg nominal dose inhaled, 16-17 h post inhalation
[9] = 100 μg/kg nominal dose inhaled, 24-25 h post inhalation

O=C(O)c1ccc(CCN(CCc2cc(F)ccc2OCc2ccc(-c3nc4cc(Cl)ccc4o3)cc2)C2CCCc3nc(C(=O)O)ccc32)cc1 (single isomer, unassigned) [comparative example 4, 5-{[2-(4-Carboxyphenyl)ethyl][2-(2-{[4-(5-chloro-1,3-benzoxazol-2-yl)benzyl]oxy}-5-fluorophenyl)-ethyl]amino}-5,6,7,8-tetrahydroquinoline-2-carboxylic acid]
PAP, absolute values for each animal ([1]; 100 μg/kg nominal dose inhaled 1 h before hypoxia, time 4 min): 9 and 15 and 10
PAP, absolute values for each animal ([1]; 100 μg/kg nominal dose inhaled 1 h before hypoxia, time 6 min): 9 and 14 and 11
PAP, absolute values for each animal ([1]; 100 μg/kg nominal dose inhaled 1 h before hypoxia, time 8 min): 10 and 14 and 11
PAP, absolute values for each animal ([1]; 100 μg/kg nominal dose inhaled 16 h before hypoxia, time 22 min): 23 and 26 and 13
PAP, absolute values for each animal ([1]; 100 μg/kg nominal dose inhaled 16 h before hypoxia, time 24 min): 23 and 26 and 14
PAP, absolute values for each animal ([1]; 100 μg/kg nominal dose inhaled 16 h before hypoxia, time 26 min): 21 and 32 and 15
PAP, absolute values for each animal ([1]; 100 μg/kg nominal dose inhaled 16 h before hypoxia, time 28 min): 22 and 29 and 17
PAP, absolute values for each animal ([1]; 100 μg/kg nominal dose inhaled 16 h before hypoxia, time 30 min): 26 and 31 and 18
PAP, absolute values for each animal ([1]; 100 μg/kg nominal dose inhaled 16 h before hypoxia, time 32 min): 24 and 29 and 16
PAP, absolute values for each animal ([1]; 100 μg/kg nominal dose inhaled 16 h before hypoxia, time 34 min): 23 and 32 and 21
PAP, absolute values for each animal ([1]; 100 μg/kg nominal dose inhaled 16 h before hypoxia, time 36 min): 20 and 29 and 19
PAP, absolute values for each animal ([1]; 100 μg/kg nominal dose inhaled 16 h before hypoxia, time 38 min): 25 and 29 and 12
PAP, absolute values for each animal ([1]; 100 μg/kg nominal dose inhaled 16 h before hypoxia, time 40 min): 25 and 30 and 22
PAP, absolute values for each animal ([1]; 100 μg/kg nominal dose inhaled 16 h before hypoxia, time 42 min): 12 and 21 and 8
PAP, absolute values for each animal ([1]; 100 μg/kg nominal dose inhaled 16 h before hypoxia, time 44 min): 9 and 17 and 7
PAP, absolute values for each animal ([1]; 100 μg/kg nominal dose inhaled 16 h before hypoxia, time 46 min): 9 and 16 and 8
PAP, absolute values for each animal ([1]; 100 μg/kg nominal dose inhaled 16 h before hypoxia, time 48 min): 6 and 16 and 8
PAP, absolute values for each animal ([1]; 100 μg/kg nominal dose inhaled 16 h before hypoxia, time 50 min): 6 (2×) and 15
PAP, absolute values for each animal ([1]; 100 μg/kg nominal dose inhaled 24 h before hypoxia, time 0 min): 10 and 16 and 15
PAP, absolute values for each animal ([1]; 100 μg/kg nominal dose inhaled 24 h before hypoxia, time 2 min): 12 and 16 and 17
PAP, absolute values for each animal ([1]; 100 μg/kg nominal dose inhaled 24 h before hypoxia, time 4 min): 10 and 15 and 16
PAP, absolute values for each animal ([1]; 100 μg/kg nominal dose inhaled 24 h before hypoxia, time 6 min): 10 and 13 and 14
PAP, absolute values for each animal ([1]; 100 μg/kg nominal dose inhaled 24 h before hypoxia, time 8 min): 9 and 14 and 12
PAP, absolute values for each animal ([1]; 100 μg/kg nominal dose inhaled 24 h before hypoxia, time 10 min): 10 and 15 and 14
PAP, absolute values for each animal ([1]; 100 μg/kg nominal dose inhaled 24 h before hypoxia, time 12 min): 18 and 22 and 14
PAP, absolute values for each animal ([1]; 100 μg/kg nominal dose inhaled 24 h before hypoxia, time 14 min): 18 and 19 and 15
PAP, absolute values for each animal ([1]; 100 μg/kg nominal dose inhaled 24 h before hypoxia, time 16 min): 20 and 23 and 17
PAP, absolute values for each animal ([1]; 100 μg/kg nominal dose inhaled 24 h before hypoxia, time 18 min): 23 and 25 and 17
PAP, absolute values for each animal ([1]; 100 μg/kg nominal dose inhaled 24 h before hypoxia, time 20 min): 23 and 24 and 21
PAP, absolute values for each animal ([1]; 100 μg/kg nominal dose inhaled 24 h before hypoxia, time 22 min): 22 and 26 and 17
PAP, absolute values for each animal ([1]; 100 μg/kg nominal dose inhaled 24 h before hypoxia, time 24 min): 24 and 25 and 18
PAP, absolute values for each animal ([1]; 100 μg/kg nominal dose inhaled 24 h before hypoxia, time 26 min): 23 and 25 and 19
PAP, absolute values for each animal ([1]; 100 μg/kg nominal dose inhaled 24 h before hypoxia, time 28 min): 22 and 27 and 18
PAP, absolute values for each animal ([1]; 100 μg/kg nominal dose inhaled 24 h before hypoxia, time 30 min): 23
efficacy (PAP decrease), head to head ([1]; 100 μg/kg nominal dose inhaled, up to 6 hrs after inhalation): comparable efficacy
mPAP decrease during Hypoxia, each animal [1, 5]: −11.69 mmHg and −10.19 mmHg and −11.38 mmHg
mPAP decrease during Hypoxia, mean +/− SEM [1, 5]: −11.08 ± 0.46 mmHg
mPAP decrease during Hypoxia, each animal [1, 6]: −14.81 mmHg and −6.69 mmHg and −8.00 mmHg
mPAP decrease during Hypoxia, mean +/− SEM [1, 6]: −9.83 ± 2.52 mmHg
mPAP decrease during Hypoxia, each animal [1, 7]: −0.50 mmHg and −4.63 mmHg and −0.56 mmHg
mPAP decrease during Hypoxia, mean +/− SEM [1, 7]: −1.90 ± 1.36 mmHg
mPAP decrease during Hypoxia, each animal [1, 8]: 0.81 mmHg and −0.56 mmHg and −1.06 mmHg
mPAP decrease during Hypoxia, mean +/− SEM [1, 8]: −0.27 ± 0.56 mmHg
mPAP decrease during Hypoxia, each animal [1, 9]: −2.56 mmHg and −3.13 mmHg and −2.25 mmHg
mPAP decrease during Hypoxia, mean +/− SEM [1, 9]: −2.65 ± 0.26 mmHg

O=C(O)CCCCN(CCc1ccccc1OCc1ccc(CCc2ccccc2)cc1)Cc1ccc(C(=O)O)cc1 [comparative example 1, 4-[((4Carboxybutyl)-{2-[(4-phenethylbenzyl)oxy]phenethyl}amino)methyl]benzoic acid]
IC50 ([2]; 0.5 h, 30 min after incubation): 0.017 µM
IC50 ([2]; preincubation period of 2.5 h): 0.003 µM
fraction unbound [3]: 0.0112

O=C(O)c1ccc(CCN(CCc2ccccc2OCc2ccc(-c3ccc(C(F)(F)F)cc3)cc2Cl)[C@H]2CCCc3nc(C(=O)O)ccc32)cc1 [example 2, (5S)-{[2-(4-Carboxyphenyl)ethyl][2-(2-{[3-chloro-4′-(trifluoromethyl)biphenyl-4-yl]methoxy}phenyl)-ethyl]amino}-5,6,7,8-tetrahydroquinoline-2-carboxylic acid]
storage stability of the form ([4]; listed as monohydrate II): underwent conversion to monohydrate I

O=C(O)c1ccc(CCN(CCc2ccccc2OCc2ccc(-c3ccc(C(F)(F)F)cc3)cc2Cl)[C@H]2CCCc3nc(C(=O)O)ccc32)cc1 [example 4, (5S)-{[2-(4-Carboxyphenyl)ethyl][2-(2-{[3-chloro-4′-(trifluoromethyl)biphenyl-4-yl]methoxy}phenyl)-ethyl]amino}-5,6,7,8-tetrahydroquinoline-2-carboxylic acid]
storage stability of the form ([4]; listed as monohydrate I): stable
